Experimental findings from patent US20200206233A1 (INTEGRAL BIOSCIENCES PRIVATE LIMITED, priority 2018, published 2020) are described below.

Structures are written as SMILES.

The target of the experiment is T1, IDH1 mutant (R132H) (Homo sapiens, UniProt O75874, R132H).
T1 construct: purchased BPS Bioscience 71099-2
T1 sequence (O75874 whole entry R132H): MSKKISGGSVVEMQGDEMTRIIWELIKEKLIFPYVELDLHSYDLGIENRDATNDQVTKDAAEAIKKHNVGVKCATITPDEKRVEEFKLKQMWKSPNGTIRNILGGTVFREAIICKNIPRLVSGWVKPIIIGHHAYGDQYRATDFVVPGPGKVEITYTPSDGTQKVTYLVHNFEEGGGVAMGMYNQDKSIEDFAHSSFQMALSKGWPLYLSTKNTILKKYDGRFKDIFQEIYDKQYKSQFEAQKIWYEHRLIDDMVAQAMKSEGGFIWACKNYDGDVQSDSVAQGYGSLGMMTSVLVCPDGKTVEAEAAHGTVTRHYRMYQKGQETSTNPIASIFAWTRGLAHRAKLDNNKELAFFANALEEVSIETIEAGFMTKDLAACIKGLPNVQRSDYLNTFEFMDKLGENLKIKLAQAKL
Kind of experiment: Mutant IDH1-R132H Fluorescence Assay (Resazurin based). It counts as biochemical. The following applies: 10 nM IDH1 R132H, 4 mM α-ketoglutarate, NADPH, 1.5 h at room temperature. As to the method:
IC50 values of compounds against IDH1 mutant (R132H) was determined by Resazurin based Fluorescence assay. Assays were performed in Buffer (25 mM Tris HCl, 150 mM NaCl, 10 mM MgCl2, 0.03% BSA, 2 mM 1-mercaptoethanol) where total reaction volume was 12.5 μL in low-volume 384-well plates (Cat #4511, Corning). Serially diluted compounds (3-fold) were incubated with cocktail of α-ketoglutarate (4 mM; Cat #75892-25G, Sigma), NADPH ([…]; Cat # N1630-100MG, Sigma) and buffer for 5 min, following IDH1 R132H mutant (10 nM; Cat #71099-2, BPS Bioscience) was added and incubated in dark at room temperature for 1.5 h. After 1.5 h, 6.25 μL detection solution containing Resazurin ([…]; (Cat #62758-13-8, Sigma) and Diaphorase (40 ug/ml; Cat # D2197-300UN, Sigma) in buffer was added and incubated for 15 min. Readings were taken in a Synergy Neo Plate reader (BioTek, Winooski) at single excitation of 540 nm and emission at 590 nm respectively.
The % (percent) activity of test samples was calculated as (Sample−Min)×100/(Max−Min). [Max: DMSO control, complete reaction with enzyme with DMSO and Min: No enzyme with DMSO]. Percent inhibition (100−% activity) was fitted to the “four-parameter logistic model” in XLfit for determination of IC50 values.
On the technique in general: Alamar Blue is a resazurin reagent that responds to reducing activity.
As for `CC[C@H]1COC(=O)N1c1nc(C)nc(N[C@H](C)c2ccc(Nc3ccccc3)cc2)n1` [Compound 1.88, (S)-4-ethyl-3-(4-methyl-6-((R)-1-(4-(phenylamino)phenyl)ethylamino)-1,3,5-triazin-2-yl)oxazolidin-2-one], the 50% inhibitory concentration (IC50) (usually the point on the concentration scale where inhibition reaches its midpoint) was greater than 30 µM.

As to `CC[C@H]1COC(=O)N1c1nc(C)nc(N[C@@H](C)c2cc3cc(C)ccc3[nH]c2=O)n1` [Compound 1.108, (S)-4-ethyl-3-(4-methyl-6-((S)-1-(6-methyl-2-oxo-1,2-dihydroquinolin-3-yl)ethylamino)-1,3,5-triazin-2-yl)oxazolidin-2-one], the concentration for half-maximal inhibition (IC50) stood at 1.27 µM.

With `CC[C@H]1COC(=O)N1c1nc(C)nc(N[C@@H](C)c2ccc(Cc3ccccc3)cc2)n1` [Compound 1.95, (S)-3-(4-((S)-1-(4-benzylphenyl)ethylamino)-6-methyl-1,3,5-triazin-2-yl)-4-ethyloxazolidin-2-one], the IC50 was 2.64 µM.

For the compound `CC[C@H]1COC(=O)N1c1nc(C)nc(N[C@H](C)c2ccc(Oc3cccnc3C(F)(F)F)cc2)n1` [Compound 1.80, (S)-4-ethyl-3-(4-methyl-6-((R)-1-(4-(2-(trifluoromethyl)pyridin-3-yloxy)phenyl)ethylamino)-1,3,5-triazin-2-yl)oxazolidin-2-one], the IC50 was 10.2 µM.

As for `CC[C@H]1COC(=O)N1c1nc(C)nc(N[C@@H](C)c2ccc(Oc3ccccc3)nc2)n1` [Compound 1.77, (S)-4-ethyl-3-(4-methyl-6-((S)-1-(6-phenoxypyridin-3-yl)ethylamino)-1,3,5-triazin-2-yl)oxazolidin-2-one], the IC50 amounted to 5.95 µM.

For `C[C@@H](Nc1ncnc(N2CCOC2=O)n1)c1ccc(Oc2ccccc2)cc1` [Compound 1.20], the IC50 was greater than 30 µM.

Turning to `CC[C@H]1COC(=O)N1c1nc(C)nc(N[C@H](C)c2cc3cc(Br)ccc3[nH]c2=O)n1` [Compound 1.67, (S)-3-(4-((R)-1-(6-bromo-2-oxo-1,2-dihydroquinolin-3-yl)ethylamino)-6-methyl-1,3,5-triazin-2-yl)-4-ethyloxazolidin-2-one], the IC50 came to 12.3 µM.

As to `CC[C@H]1COC(=O)N1c1nc(C)nc(N[C@H](C)c2ccc(C(=O)Nc3ccccc3)cc2)n1` [Compound 1.102, 4-((R)-1-(4-((S)-4-ethyl-2-oxooxazolidin-3-yl)-6-methyl-1,3,5-triazin-2-ylamino)ethyl)-N-phenylbenzamide], the half-inhibitory concentration (IC50) is greater than 30 µM.

With `CC[C@H]1COC(=O)N1c1nc(C)nc(N[C@H](C)c2cc3cc(Cl)ccc3[nH]c2=O)n1` [Compound 1.39, (S)-3-(4-((R)-1-(6-chloro-2-oxo-1,2-dihydroquinolin-3-yl)ethylamino)-6-methyl-1,3,5-triazin-2-yl)-4-ethyloxazolidin-2-one], the IC50 is greater than 30 µM.

For the compound `CC(C)[C@H]1COC(=O)N1c1ncnc(N[C@H](C)c2ccc(N3CCN(C)CC3)cn2)n1` [Compound 1.25, (S)-4-isopropyl-3-(4-((R)-1-(5-(4-methylpiperazin-1-yl)pyridin-2-yl)ethylamino)-1,3,5-triazin-2-yl)oxazolidin-2-one], the IC50 was greater than 30 µM.

Take `CC[C@H]1COC(=O)N1c1nc(C)nc(N[C@@H](C)c2cc(C)c(-c3ccnc(C(F)(F)F)c3)cn2)n1` [Compound 1.54, (S)-4-ethyl-3-(4-methyl-6-((S)-1-(4-methyl-2′-(trifluoromethyl)-3,4′-bipyridin-6-yl)ethylamino)-1,3,5-triazin-2-yl)oxazolidin-2-one]: the IC50 was 1.21 µM.

In the case of `Cc1nc(N[C@H](C)c2cc3cc(Cl)ccc3[nH]c2=O)nc(N2C(=O)OC[C@@H]2[C@H](C)F)n1` [Compound 1.60, (R)-3-(4-((R)-1-(6-chloro-2-oxo-1,2-dihydroquinolin-3-yl)ethylamino)-6-methyl-1,3,5-triazin-2-yl)-4-((S)-1-fluoroethyl)oxazolidin-2-one], the concentration for half-maximal inhibition (IC50) is greater than 30 µM.

In the case of `CC(C)[C@H]1COC(=O)N1c1ncnc(N[C@H](C)c2cc3cc(Cl)ccc3[nH]c2=O)n1` [Compound 1.22, (S)-3-(4-((R)-1-(6-chloro-2-oxo-1,2-dihydroquinolin-3-yl)ethylamino)-1,3,5-triazin-2-yl)-4-isopropyloxazolidin-2-one], the 50% inhibitory concentration (IC50) is greater than 30 µM.

For the compound `CC(C)[C@H]1COC(=O)N1c1ncnc(N[C@H](C)c2ccc(Oc3ccccc3)cn2)n1` [Compound 1.18, (S)-4-isopropyl-3-(4-((R)-1-(5-phenoxypyridin-2-yl)ethylamino)-1,3,5-triazin-2-yl)oxazolidin-2-one], the IC50 is greater than 30 µM.

As to `CC[C@H]1COC(=O)N1c1nc(C)nc(N[C@H](C)c2cc3cc(-c4ccc(Cl)cc4)ccc3[nH]c2=O)n1` [Compound 1.107, (S)-3-(4-((R)-1-(6-(4-chlorophenyl)-2-oxo-1,2-dihydroquinolin-3-yl)ethylamino)-6-methyl-1,3,5-triazin-2-yl)-4-ethyloxazolidin-2-one], the IC50 is greater than 30 µM.

In the case of `CC(C)[C@H]1COC(=O)N1c1ncnc(N[C@H](C)c2ccc(Oc3ccccc3)cc2)n1` [Compound 1.8, (S)-4-isopropyl-3-(4-((R)-1-(4-phenoxyphenyl)ethylamino)-1,3,5-triazin-2-yl)oxazolidin-2-one], the concentration for half-maximal inhibition (IC50) is greater than 30 µM.

Turning to `CC[C@H]1COC(=O)N1c1nc(C)nc(N[C@H](C)c2ccc(Oc3ccc(F)cc3Br)cc2)n1` [Compound 1.79, (S)-3-(4-((R)-1-(4-(2-bromo-4-fluorophenoxy)phenyl)ethylamino)-6-methyl-1,3,5-triazin-2-yl)-4-ethyloxazolidin-2-one], the IC50 came out at 2.72 µM.

Take `CC[C@H]1COC(=O)N1c1nc(C)nc(N[C@@H](C)c2ccc(Oc3ccc(Cl)cc3)nc2OC)n1` [Compound 1.87, (S)-3-(4-((S)-1-(6-(4-chlorophenoxy)-2-methoxypyridin-3-yl)ethylamino)-6-methyl-1,3,5-triazin-2-yl)-4-ethyloxazolidin-2-one]: the IC50 worked out at 8.82 µM.

`C[C@@H](Nc1ncnc(N2C(=O)OC[C@@H]2C)n1)c1ccc(Oc2ccccc2)cc1` [Compound 1.17, (S)-4-methyl-3-(4-((R)-1-(4-phenoxyphenyl)ethylamino)-1,3,5-triazin-2-yl)oxazolidin-2-one]: the 50% inhibitory concentration (IC50) was greater than 30 µM.

In the case of `CC[C@H]1COC(=O)N1c1nc(C)nc(N[C@H](C)c2ccc(Oc3ccc(Cl)cc3)c(C)n2)n1` [Compound 1.97, (S)-3-(4-((R)-1-(5-(4-chlorophenoxy)-6-methylpyridin-2-yl)ethylamino)-6-methyl-1,3,5-triazin-2-yl)-4-ethyloxazolidin-2-one], the IC50 is greater than 30 µM.

As to `CC[C@H]1COC(=O)N1c1nc(C)nc(N[C@@H](C)c2ccc3c(-c4ccccc4)cn(C)c3c2)n1` [Compound 1.101, (S)-4-ethyl-3-(4-methyl-6-((S)-1-(1-methyl-3-phenyl-1H-indol-6-yl)ethylamino)-1,3,5-triazin-2-yl)oxazolidin-2-one], the IC50 stood at 13.6 µM.

With `CC(C)[C@H]1COC(=O)N1c1ncnc(N[C@@H](C)c2ccc(N3CCN(C)CC3)cn2)n1` [Compound 1.24, (S)-4-isopropyl-3-(4-((S)-1-(5-(4-methylpiperazin-1-yl)pyridin-2-yl)ethylamino)-1,3,5-triazin-2-yl)oxazolidin-2-one], the IC50 was greater than 30 µM.

In the case of `CC[C@H]1COC(=O)N1c1nc(C)nc(N[C@H](C)c2ccc(Sc3ccc(F)cc3)cc2)n1` [Compound 1.91, (S)-4-ethyl-3-(4-((R)-1-(4-(4-fluorophenylthio)phenyl)ethylamino)-6-methyl-1,3,5-triazin-2-yl)oxazolidin-2-one], the IC50 is greater than 30 µM.

As to `CC[C@H]1COC(=O)N1c1nc(C)nc(N[C@H](C)c2cc3cc(OC)ccc3[nH]c2=O)n1` [Compound 1.56, (S)-4-ethyl-3-(4-((R)-1-(6-methoxy-2-oxo-1,2-dihydroquinolin-3-yl)ethylamino)-6-methyl-1,3,5-triazin-2-yl)oxazolidin-2-one], the IC50 was greater than 30 µM.

Regarding `CC(C)[C@H]1COC(=O)N1c1ncnc(N[C@@H](C)c2ccccn2)n1` [Compound 1.30, (S)-4-isopropyl-3-(4-((S)-1-(pyridin-2-yl)ethylamino)-1,3,5-triazin-2-yl)oxazolidin-2-one], the half-maximal inhibitory concentration (IC50) is greater than 30 µM.

For `CC[C@H]1COC(=O)N1c1nc(C)nc(N[C@@H](C)c2cnc3ccc(Cl)nn23)n1` [Compound 1.69, (S)-3-(4-((S)-1-(6-chloroimidazo[1,2-b]pyridazin-3-yl)ethylamino)-6-methyl-1,3,5-triazin-2-yl)-4-ethyloxazolidin-2-one], the IC50 is greater than 30 µM.

For the compound `CC[C@H]1COC(=O)N1c1nc(C)nc(N[C@@H](C)c2ccc(CN3CCN(C(C)=O)CC3)cc2)n1` [Compound 1.98, (S)-3-(4-((S)-1-(4-((4-acetylpiperazin-1-yl)methyl)phenyl)ethylamino)-6-methyl-1,3,5-triazin-2-yl)-4-ethyloxazolidin-2-one], the half-maximal inhibitory concentration (IC50) turned out to be 21.4 µM.

`CC[C@H]1COC(=O)N1c1nc(C)nc(N[C@@H](C)c2ccc(Oc3cccnc3)cc2)n1` [Compound 1.74, (S)-4-ethyl-3-(4-methyl-6-((S)-1-(4-(pyridin-3-yloxy)phenyl)ethylamino)-1,3,5-triazin-2-yl)oxazolidin-2-one]: the concentration for half-maximal inhibition (IC50) is greater than 30 µM.
